Measurements as given in US11590116B2 (THERAVANCE BIOPHARMA R&D IP, LLC, priority 2019, dated 2023).

Columns and labels:
[1] = biological target: T1, recombinant human ALK5 (TGF-βR1) protein (Homo sapiens, UniProt P36897); experiment: Biochemical ALK5 (TGF-βR1) assay to measure pKi (LANCE Ultra ULight kinase assay); conditions: apparent pKi from pIC50 by Cheng-Prusoff, read-out: ALK5 pKi (converted)
T1 construct: purchased Life Technologies PR9075A
T1 sequence (P36897 34-503): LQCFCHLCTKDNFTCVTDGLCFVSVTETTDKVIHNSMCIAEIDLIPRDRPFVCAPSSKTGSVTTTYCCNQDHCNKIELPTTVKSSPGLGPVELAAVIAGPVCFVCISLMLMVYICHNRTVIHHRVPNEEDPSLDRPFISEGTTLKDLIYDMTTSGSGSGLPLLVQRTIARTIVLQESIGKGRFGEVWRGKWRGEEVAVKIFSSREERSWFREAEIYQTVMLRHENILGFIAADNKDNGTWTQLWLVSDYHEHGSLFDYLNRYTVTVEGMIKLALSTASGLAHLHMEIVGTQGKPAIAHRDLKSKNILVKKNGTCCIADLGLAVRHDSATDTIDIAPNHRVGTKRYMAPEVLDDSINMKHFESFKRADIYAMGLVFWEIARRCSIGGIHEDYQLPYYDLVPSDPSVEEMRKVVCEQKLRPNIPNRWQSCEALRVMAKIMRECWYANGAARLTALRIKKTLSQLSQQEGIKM
Procedure, shortened: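 Dose range 10 μM–25 pM; enzyme + compound 60 min RT; ATP added (5× stock 125 μM, 2 mM DTT); 60 min 37 °C; stop with EDTA + Eu anti-phospho-Topo IIα Thr1342 Ab; TR-FRET ex 320/340, em 665 nm. 4-param pIC50 → pKi (Cheng-Prusoff).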

[2] = tested on: TGF-β-stimulated SMAD3 phosphorylation in BEAS-2B cells; experiment: Cellular ALK5 potency assay, inhibition of TGF-β stimulated pSMAD3 formation in BEAS-2B cells; assay type: cell-based; conditions: Homo sapiens; inhibition of TGF-β stimulated pSMAD3 formation, BEAS-2B cells; read-out: BEAS2B pIC50 (converted)
Procedure, shortened: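 Potency is reported as pIC50, derived from concentration-dependent reduction of pSMAD3 AlphaLISA signal against TGF-β-stimulated cells without compound. BEAS-2B cells received compound for 1 h before a 30-min stimulation with 10 ng/mL TGF-β.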

Row | Ki [1] [nM] | Structure (SMILES) | IC50 [2] [nM]
1 | < 0.0316 | Cc1cccc(-c2[nH]cnc2-c2ccc3ncc(-c4csc(C(=O)OC[C@@H]5CCCN5)c4)cc3c2)n1 [Compound 1183, [(2S)-pyrrolidin-2-yl]methyl 4-[6-[5-(6-methyl-2-pyridyl)-1H-imidazol-4-yl]-3-quinolyl]thiophene-2-carboxylate] | 25.1 to 158
2 | 0.398 to 3.16 | CCOc1nc(-c2ccc3ncc(Br)cc3c2)c(-c2cccc(C)n2)[nH]1 [Compound 1185, 3-bromo-6-[2-ethoxy-5-(6-methyl-2-pyridyl)-1H-imidazol-4-yl]quinoline] | 25.1 to 158
3 | 0.0398 to 0.316 | Cc1cccc(-c2[nH]cnc2-c2ccc3ncc(-c4ncc(C(=O)OCCN5CCNCC5)s4)cc3c2)n1 [Compound 1187, 2-piperazin-1-ylethyl 2-[6-[5-(6-methyl-2-pyridyl)-1H-imidazol-4-yl]-3-quinolyl]thiazole-5-carboxylate] | 25.1 to 158
4 | 0.0398 to 0.316 | Cc1cccc(-c2[nH]cnc2-c2ccc3ncc(Br)cc3c2)n1 [Compound 1190, 3-bromo-6-[5-(6-methyl-2-pyridyl)-1H-imidazol-4-yl]quinoline] | < 20
5 | < 0.0316 | Cc1cccc(-c2[nH]ncc2-c2ccc3ncc(C(=O)OCCN4CCC[C@H](N)C4)cc3c2)n1 [Compound 1191, 2-[(3S)-3-amino-1-piperidyl]ethyl 6-[5-(6-methyl-2-pyridyl)-1H-pyrazol-4-yl]quinoline-3-carboxylate] | 25.1 to 158
6 | 0.0398 to 0.316 | Cc1cccc(-c2[nH]cnc2-c2ccc3ncc(-c4ccc(C(=O)OCCNC5CNC5)cn4)cc3c2)n1 [Compound 1192, 2-(azetidin-3-ylamino)ethyl 6-[6-[5-(6-methyl-2-pyridyl)-1H-imidazol-4-yl]-3-quinolyl]pyridine-3-carboxylate] | 200 to 1260
7 | 0.0398 to 0.316 | CN[C@H]1CC[C@@H](OC(=O)c2cnc3ccc(-c4cn[nH]c4-c4cccc(C)n4)cc3c2)CC1 [Compound 1195, [4-(methylamino)cyclohexyl] 6-[5-(6-methyl-2-pyridyl)-1H-pyrazol-4-yl]quinoline-3-carboxylate] | 25.1 to 158
8 | 0.0398 to 0.316 | Cc1cccc(-c2[nH]ncc2-c2ccc3ncc(C(=O)O[C@H]4CC[C@](C)(N)CC4)cc3c2)n1 [Compound 1196, (4-amino-4-methyl-cyclohexyl) 6-[5-(6-methyl-2-pyridyl)-1H-pyrazol-4-yl]quinoline-3-carboxylate] | < 20
9 | 0.0398 to 0.316 | Cc1cccc(-c2[nH]c(O)nc2-c2ccc3ncc(C4=CCC5(CCNCC5)CC4)cc3c2)n1 [Compound 1198, 4-[3-(3-azaspiro[5.5]undec-9-en-9-yl)-6-quinolyl]-5-(6-methyl-2-pyridyl)-1H-imidazol-2-ol] | 200 to 1260
10 | 3.98 to 31.6 | Cc1cccc(-c2[nH]ncc2-c2ccc3nccc(C(=O)O[C@H]4CC[C@@H](N)CC4)c3c2)n1 [Compound 1199, (4-aminocyclohexyl) 6-[5-(6-methyl-2-pyridyl)-1H-pyrazol-4-yl]quinoline-4-carboxylate] | 200 to 1260
11 | 0.0398 to 0.316 | Cc1cccc(-c2[nH]cnc2-c2ccc3ncc(-c4csc(C(=O)O[C@H]5CC[C@](C)(N)CC5)c4)cc3c2)n1 [Compound 1200, (4-amino-4-methyl-cyclohexyl) 4-[6-[5-(6-methyl-2-pyridyl)-1H-imidazol-4-yl]-3-quinolyl]thiophene-2-carboxylate] | 25.1 to 158
12 | 0.0398 to 0.316 | Cc1cccc(-c2[nH]ncc2-c2ccc3ncc(C(=O)O[C@H]4CCCNC4)cc3c2)n1 [Compound 1201, [(3S)-3-piperidyl] 6-[5-(6-methyl-2-pyridyl)-1H-pyrazol-4-yl]quinoline-3-carboxylate] | 25.1 to 158
13 | 0.398 to 3.16 | COc1nc(-c2ccc3ncc(Br)cc3c2)c(-c2cccc(C)n2)[nH]1 [Compound 1202, 3-bromo-6-[2-methoxy-5-(6-methyl-2-pyridyl)-1H-imidazol-4-yl]quinoline] | 25.1 to 158
